# Publication PMC9637222, “Autoinducer-2 and bile salts induce c-di-GMP synthesis to repress the T3SS via a T3SS chaperone” (Nature Communications, 2022)
# Several values for one entry are separate records, joined by “and”; a condition that tells them apart may be missing. Equal values may be shown once. Entries after “also recorded” stand apart in the source; their conditions may differ. Read-outs that look alike come from different tables or passages of the source.
# How the values were obtained:
# S. Typhimurium [1] = assay: Biofilm formation (crystal violet staining); assay type: cell-based; conditions: for OD590: 1 μM, Fig. 4c; for Biofilm formation (in words): strain SL1344, individual components of bile salts
# Description: Biofilm formation was measured by crystal violet staining. In brief, overnight cultures of S. Typhimurium strains were diluted with fresh LB medium to an OD600 of 0.05, and 200 μl aliquots of the diluted cells were inoculated into each well of a sterile flat-bottomed 96-well polystyrene microtiter plate. After incubation at 37 °C for 24 h without shaking, culture supernatants were removed, and the wells were washed twice with sterilized water. Cells adhering to the wells were then stained with 0.1% (w/v) crystal violet for 15 min, followed by two washes using distilled water to remove unbound dye. […] For swimming motility assay, overnight cultures of S. Typhimurium strains were diluted to an OD600 of 0.5, and 2 μl aliquots of the diluted cells were spotted onto 0.3% tryptone agar (1% tryptone, 0.5% NaCl, and 0.3% Bacto agar [Difco]). Motility halos were measured after the plates were incubated at 37 °C for 12 h.
# SicA = target: T1, SicA (Salmonella typhimurium, UniProt P69066); assay: ITC: nucleotide (c-di-GMP, c-di-AMP, cGMP) binding to SicA; set-up: species or system S. Typhimurium; conditions: same experimental conditions as c-di-GMP
# T1 construct: His6 (N, cleaved yes); made in house; host or cells: E. coli BL21(DE3), pET-28a (pET28a-sicA)
# YedQ-LBD = target: T2, YedQ-LBD (Salmonella typhimurium, UniProt Q8ZNT5); assay: biochemical; assay type: binding, S. Typhimurium
# T2 construct: the periplasmic LBD (residues 43–357) of YedQ is structurally not well defined; His6 (N, cleaved yes); made in house; host or cells: E. coli BL21(DE3) or its luxS deletion derivative, pET-28a
# Description: (§1) ITC measurements were carried out at 20 °C with a Nano ITC Standard Volume isothermal calorimeter (TA Instruments, New Castle, DE) controlled by the ITCRun software. The N-terminal His6 tags of all purified proteins were removed before ITC analysis. For titrations with DPD/AI-2 (Omm Scientific), the tag-free proteins were dialyzed against a Tris buffer (25 mM Tris-HCl, 150 mM NaCl, pH 7.5) and diluted to 70 μM, while DPD/AI-2 was diluted with the same buffer to 700 μM. […] After being degassed, 1 ml of the protein and 250 μl of the ligand solution were added to the sample cell and the syringe, respectively. There were 25 injections per experiment and the stirring speed was 200 rpm. In control experiments, the ligand solution was titrated into the buffer in the sample cell to obtain the heat of dilution. Microcalorimetric data were corrected by subtracting the heats of dilution and fit to the independent binding site model using the NanoAnalyze software.
# YedQ-LBD D233A = YedQ-LBD D233A (Salmonella typhimurium, UniProt Q8ZNT5, D233A); assay: biochemical
# Description: as §1
# (§2) The binding affinitywas evaluated using ITC analysis. ITC data and plots of injected heat for injections
# (§3) binding curves were corrected for the dilution effects in the final analysis.
# (§4) The Kd and binding stoichiometry
# (§5) (n)values were presented as mean ± s.d. of three independent experiments. Source data are provided
# YedQ-LBD K236A = YedQ-LBD K236A (Salmonella typhimurium, UniProt Q8ZNT5, K236A); assay: biochemical
# Description: as §1, §2, §3, §4, §5
# YedQ-LBD L288A = YedQ-LBD L288A (Salmonella typhimurium, UniProt Q8ZNT5, L288A); assay: biochemical
# Description: as §1, §2, §3, §4, §5
# YedQ-LBD L289A = YedQ-LBD L289A (Salmonella typhimurium, UniProt Q8ZNT5, L289A); assay: biochemical
# Description: as §1, §2, §3, §4, §5
# YedQ-LBD Q264A = YedQ-LBD Q264A (Salmonella typhimurium, UniProt Q8ZNT5, Q264A); assay: biochemical
# Description: as §1, §2, §3, §4, §5
# WP_010904779-LBD = target: T3, WP_010904779-LBD (Escherichia coli O157:H7, UniProt Q8XB92); assay: biochemical; assay type: binding, EHEC O157:H7; conditions: for Binding affinity (in words) / Kd: ITC; for Binding affinity (in words): LBD of the YedQ homolog from EHEC O157:H7
# T3 construct: His6 (N, cleaved yes); made in house; host or cells: E. coli BL21(DE3) or its luxS deletion derivative
# T3 sequence (Q8XB92 43-357 limits assumed): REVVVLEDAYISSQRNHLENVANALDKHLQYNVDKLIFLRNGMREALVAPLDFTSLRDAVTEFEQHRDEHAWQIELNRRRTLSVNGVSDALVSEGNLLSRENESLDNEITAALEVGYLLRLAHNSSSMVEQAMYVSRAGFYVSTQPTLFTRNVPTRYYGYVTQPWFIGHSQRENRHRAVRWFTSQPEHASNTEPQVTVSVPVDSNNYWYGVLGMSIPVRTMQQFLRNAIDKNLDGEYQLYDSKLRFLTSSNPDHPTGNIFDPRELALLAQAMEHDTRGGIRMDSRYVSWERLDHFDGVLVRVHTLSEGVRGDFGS
# Description: as §1
# The binding affinity was evaluated by ITC analysis. ITC data and plots of injected heat for automatic
# WP_010904779-LBD are shown in the upper and lower plots, respectively. The binding curves were
# corrected for the dilution effects in the finalanalysis.
# Kd and binding stoichiometry (n) are presented as mean ± s.d. of three
# YedQ = tested on: T4, YedQ; assay: In vitro DGC activity assay of YedQ (membrane fractions, HPLC of c-di-GMP); assay type: biochemical, S. Typhimurium; conditions: for Effect on DGC activity of YedQ in c-di-GMP synthesis (in words): in vitro, membrane fractions
# T4 construct: Preparation of membrane fractions containing full-length YeaJ and YedQ; made in house; host or cells: ΔluxS mutant of E. coli BL21(DE3), membrane fractions
# S. Typhimurium [2] = assay: Cellular c-di-GMP quantification by LC-MS/MS; assay type: cell-based; conditions: 1 μM; for c-di-GMP (fmol/107 cells): strain WT(Vector), Fig. 4e; for Change of intracellular c-di-GMP levels (in words): wild-type strain; for Induction of intracellular c-di-GMP levels (in words): ΔyedQ mutant
# Description: For stimulation with AI-2, the DPD/AI-2 solution was added to the shaking culture at OD600 of 1.3, followed by another 30 min of incubation at 37 °C. For induction by porcine bile salts and individual bile components (Sigma-Aldrich), substances were added to the static culture at OD600 of 1.1, followed by another 30 min of incubation at 37 °C. About 15 ml of culture was centrifuged and the cells were washed twice with phosphate-buffered saline (PBS, pH 7.0). The cell pellets were resuspended in 500 μl of extraction solution (acetonitrile/methanol/water, 40:40:20, v/v/v) and cooled on ice for 15 min. The samples were boiled for 10 min at 95 °C and then cooled again on ice for 15 min. After centrifugation at 20,000×g and 4 °C for 10 min, supernatants were transferred to new tubes on ice. The remaining pellets were used for two more extraction steps with 500 μl of the extraction solution without heating. Pooled supernatants for each sample were lyophilized, and pellets were resolubilized in 200 μl of distilled water. C-di-GMP concentrations were then measured by LC-MS/MS[63] (AB SCIEX QTRAP 6500+ LC-MS/MS System). Intracellular levels of c-di-GMP were normalized to the number of bacterial cells for each sample.
# Sequence of YedQ-LBD L288A (Q8ZNT5 43-357 L288A): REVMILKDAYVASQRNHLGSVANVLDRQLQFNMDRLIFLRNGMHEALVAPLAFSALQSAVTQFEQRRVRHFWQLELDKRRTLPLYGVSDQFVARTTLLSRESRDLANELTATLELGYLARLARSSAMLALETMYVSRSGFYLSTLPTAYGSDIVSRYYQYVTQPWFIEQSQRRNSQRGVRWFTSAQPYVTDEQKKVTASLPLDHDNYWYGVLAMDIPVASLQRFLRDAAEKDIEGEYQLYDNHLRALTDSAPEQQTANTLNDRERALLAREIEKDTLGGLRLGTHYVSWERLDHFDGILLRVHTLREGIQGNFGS
# Sequence of YedQ-LBD D233A (Q8ZNT5 43-357 D233A): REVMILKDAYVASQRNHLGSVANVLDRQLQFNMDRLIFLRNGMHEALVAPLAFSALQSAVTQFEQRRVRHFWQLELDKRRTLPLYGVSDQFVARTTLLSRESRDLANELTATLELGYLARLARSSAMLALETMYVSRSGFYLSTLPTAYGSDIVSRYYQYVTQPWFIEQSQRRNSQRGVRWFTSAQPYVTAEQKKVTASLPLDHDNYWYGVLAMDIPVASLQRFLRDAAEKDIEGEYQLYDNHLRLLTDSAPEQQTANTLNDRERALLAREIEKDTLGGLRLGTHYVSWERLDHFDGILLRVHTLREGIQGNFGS
# Sequence of YedQ-LBD L289A (Q8ZNT5 43-357 L289A): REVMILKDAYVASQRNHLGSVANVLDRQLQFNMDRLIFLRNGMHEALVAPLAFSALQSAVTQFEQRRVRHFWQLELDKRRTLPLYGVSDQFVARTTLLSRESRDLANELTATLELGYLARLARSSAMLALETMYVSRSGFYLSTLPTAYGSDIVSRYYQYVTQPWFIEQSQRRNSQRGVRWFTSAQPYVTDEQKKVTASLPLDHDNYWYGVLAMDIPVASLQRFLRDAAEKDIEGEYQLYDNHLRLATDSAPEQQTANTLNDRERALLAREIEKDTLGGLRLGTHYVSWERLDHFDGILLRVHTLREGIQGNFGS
# Sequence of YedQ-LBD K236A (Q8ZNT5 43-357 K236A): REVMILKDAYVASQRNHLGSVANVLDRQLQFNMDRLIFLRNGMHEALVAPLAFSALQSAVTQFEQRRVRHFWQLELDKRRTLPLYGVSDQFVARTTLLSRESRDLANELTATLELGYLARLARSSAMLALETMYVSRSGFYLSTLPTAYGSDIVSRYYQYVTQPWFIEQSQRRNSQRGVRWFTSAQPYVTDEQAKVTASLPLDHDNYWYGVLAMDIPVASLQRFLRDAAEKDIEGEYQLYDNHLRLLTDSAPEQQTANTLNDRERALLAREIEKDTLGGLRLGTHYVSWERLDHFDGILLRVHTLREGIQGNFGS
# Sequence of YedQ-LBD Q264A (Q8ZNT5 43-357 Q264A): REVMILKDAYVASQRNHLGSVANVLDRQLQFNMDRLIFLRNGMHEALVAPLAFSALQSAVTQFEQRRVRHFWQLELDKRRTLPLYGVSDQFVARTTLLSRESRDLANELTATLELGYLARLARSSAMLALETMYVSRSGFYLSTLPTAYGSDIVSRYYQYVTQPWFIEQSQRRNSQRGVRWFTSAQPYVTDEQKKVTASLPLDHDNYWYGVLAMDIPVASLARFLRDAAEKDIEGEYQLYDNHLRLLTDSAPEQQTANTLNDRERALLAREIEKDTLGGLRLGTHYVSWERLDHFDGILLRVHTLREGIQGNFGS
# T2 sequence (Q8ZNT5 43-357): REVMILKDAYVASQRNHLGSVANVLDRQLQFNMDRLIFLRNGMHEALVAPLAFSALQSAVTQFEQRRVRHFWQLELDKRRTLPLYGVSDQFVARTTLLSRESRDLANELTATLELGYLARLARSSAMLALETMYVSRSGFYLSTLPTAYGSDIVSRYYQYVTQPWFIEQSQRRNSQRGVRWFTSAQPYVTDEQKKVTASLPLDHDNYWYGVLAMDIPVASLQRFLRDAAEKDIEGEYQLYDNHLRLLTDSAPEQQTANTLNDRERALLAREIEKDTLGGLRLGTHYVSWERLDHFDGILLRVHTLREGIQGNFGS
# T1 sequence (P69066 whole entry): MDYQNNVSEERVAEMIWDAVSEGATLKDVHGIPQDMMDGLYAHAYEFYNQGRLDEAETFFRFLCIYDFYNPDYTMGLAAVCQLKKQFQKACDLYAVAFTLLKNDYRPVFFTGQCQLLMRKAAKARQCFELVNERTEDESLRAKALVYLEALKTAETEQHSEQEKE
Compound,OD590 (S. Typhimurium [1]),Binding to SicA (in words) (SicA),Binding affinity (in words) (WP_010904779-LBD),"Concentration of c-di-GMP (YedQ; 100 μM, 30 min)","Concentration of c-di-GMP (YedQ; 100 μM, 60 min)","Concentration of c-di-GMP (YedQ; 200 μM, 30 min)","Concentration of c-di-GMP (YedQ; 200 μM, 60 min)",Effect on DGC activity of YedQ in c-di-GMP synthesis (in words) (YedQ),c-di-GMP (fmol/107 cells) (S. Typhimurium [2]),Change of intracellular c-di-GMP levels (in words) (S. Typhimurium [2]),Induction of intracellular c-di-GMP levels (in words) (S. Typhimurium [2]),Biofilm formation (in words) (S. Typhimurium [1]),other results
C[C@H](CCC(=O)O)[C@H]1CC[C@H]2[C@@H]3[C@H](O)C[C@@H]4C[C@H](O)CC[C@]4(C)[C@H]3C[C@H](O)[C@]12C [Cholate],2.29 and 2.20 and 2.14,–,–,–,–,–,–,–,–,–,–,–,–
C[C@H](CCC(=O)NCC(=O)O)[C@H]1CC[C@H]2[C@@H]3[C@H](O)C[C@@H]4C[C@H](O)CC[C@]4(C)[C@H]3C[C@H](O)[C@]12C [Glycocholate],2.14,–,–,–,–,–,–,–,–,–,–,–,–
Nc1ncnc2c1ncn2[C@@H]1O[C@@H]2COP(=O)(O)O[C@H]3[C@@H](O)[C@H](n4cnc5c(N)ncnc54)O[C@@H]3COP(=O)(O)O[C@H]2[C@H]1O [c-di-AMP],–,no binding,–,–,–,–,–,–,–,–,–,–,–
Nc1nc2c(ncn2[C@@H]2O[C@@H]3COP(=O)(O)O[C@H]3[C@H]2O)c(=O)[nH]1 [cGMP],–,no binding,–,–,–,–,–,–,–,–,–,–,–
C[C@H](CCC(=O)NCCS(=O)(=O)O)[C@H]1CC[C@H]2[C@@H]3[C@H](O)C[C@@H]4C[C@H](O)CC[C@]4(C)[C@H]3C[C@H](O)[C@]12C [taurocholate],–,–,high binding; also recorded: high affinity,22.83 µM and 22.66 µM and 23.00 µM,34.84 µM and 35.29 µM and 36.56 µM,39.61 µM and 38.40 µM and 39.33 µM,45.78 µM and 46.73 µM and 45.87 µM,induce the DGC activity,57.59 fmol/107 cells and 62.54 fmol/107 cells and 56.52 fmol/107 cells,significant increase,completely abolished,significantly stimulated biofilm formation,"Kd (YedQ-LBD; Kd (μM), binding to YedQ-LBD (WT)): 0.2 µM and 0.13 µM and 0.16 µM; Kd (YedQ-LBD; Kd, ITC, YedQ-LBD WT, mean ± s.d. of three independent experiments): 0.17 ± 0.03 µM; Kd (YedQ-LBD D233A; Binding affinity Kd (μM), ITC, YedQ-LBD D233A, mean ± s.d.): 18 ± 1 µM; n, Taurocholate binding to YedQ-LBDD233A (YedQ-LBD D233A; ITC binding stoichiometry n, individual replicates, Supplementary Figure 11a): 1.11 and 1.16 and 1.13; Kd (YedQ-LBD D233A; Kd (μM), binding to YedQ-LBD D233A): 18 µM and 16 µM; Kd (YedQ-LBD D233A; Kd, Taurocholate binding to YedQ-LBDD233A, ITC, individual replicates, Supplementary Figure 11a): 18 µM; Kd (YedQ-LBD K236A; Binding affinity Kd (μM), ITC, YedQ-LBD K236A, mean ± s.d.): 27 ± 2 µM; n, Taurocholate binding to YedQ-LBDK236A (YedQ-LBD K236A; ITC binding stoichiometry n, individual replicates, Supplementary Figure 11b): 1.04 and 1.09 and 1.01; Kd (YedQ-LBD K236A; Kd (μM), binding to YedQ-LBD K236A): 24 µM and 26 µM and 30 µM; n, Taurocholate binding to YedQ-LBDL288A (YedQ-LBD L288A; ITC binding stoichiometry n, individual replicates, Supplementary Figure 11d): 1.10 and 1.02 and 1.07; Kd (YedQ-LBD L288A; Kd (μM), binding to YedQ-LBD L288A): 18 µM and 21 µM and 24 µM; n, Taurocholate binding to YedQ-LBDL289A (YedQ-LBD L289A; ITC binding stoichiometry n, individual replicates, Supplementary Figure 11e): 1.18 and 1.14 and 1.16; Kd (YedQ-LBD L289A; Kd (μM), binding to YedQ-LBD L289A): 7.7 µM and 6.8 µM and 7.2 µM; n, Taurocholate binding to YedQ-LBDQ264A (YedQ-LBD Q264A; ITC binding stoichiometry n, individual replicates, Supplementary Figure 11c): 1.07 and 1.18 and 1.00; Kd (YedQ-LBD Q264A; Kd (μM), binding to YedQ-LBD Q264A): 14 µM and 12 µM and 15 µM; n, Taurocholate binding to WP_010904779-LBD (WP_010904779-LBD; ITC binding stoichiometry n, individual replicates, Supplementary Figure 24a): 1.06 and 1.08 and 1.12; Kd (WP_010904779-LBD; Taurocholate binding to WP_010904779-LBD, individual replicates, Supplementary Figure 24a): 190 nM and 220 nM and 230 nM"
C[C@H](CCC(=O)NCCS(=O)(=O)O)[C@H]1CC[C@H]2[C@@H]3CC[C@@H]4C[C@H](O)CC[C@]4(C)[C@H]3C[C@H](O)[C@]12C [taurodeoxycholate],–,–,high binding; also recorded: high affinity,22.89 µM and 24.25 µM and 23.52 µM,34.75 µM and 35.42 µM and 35.31 µM,37.84 µM and 36.56 µM and 37.20 µM,46.63 µM and 47.86 µM and 45.57 µM,induce the DGC activity,78.56 fmol/107 cells and 82.79 fmol/107 cells and 79.80 fmol/107 cells,significant increase,completely abolished,significantly stimulated biofilm formation,"Kd (YedQ-LBD; ITC, YedQ-LBD WT, mean ± s.d. of three independent experiments, read-out: Kd): 0.14 ± 0.02 µM; Kd (YedQ-LBD; binding to YedQ-LBD (WT), read-out: Kd): 0.15 µM and 0.17 µM and 0.11 µM; n, Taurodeoxycholate binding to WP_010904779-LBD (WP_010904779-LBD; ITC binding stoichiometry n, individual replicates, Supplementary Figure 24b): 1.13 and 1.09 and 1.12; Kd (WP_010904779-LBD; Taurodeoxycholate binding to WP_010904779-LBD, individual replicates, Supplementary Figure 24b): 130 nM and 170 nM and 190 nM"
